Laboratory results reported in patent US20140249084A1, “PTH-CONTAINING THERAPEUTIC/PROPHYLACTIC AGENT FOR OSTEOPOROSIS, CHARACTERIZED IN THAT PTH IS ADMINISTERED ONCE A WEEK IN A UNIT DOSE OF 100 TO 200 UNITS” (ASAHI KASEI PHARMA CORPORATION, priority 2009, published 2014).

Legend:
[1] = tested on: patients diagnosed with primary osteoporosis; assay: Lumbar spine bone mineral density by DXA, Working Example 1 (5 or 100 units once a week); format: in vivo, human; details: low-risk patients, only one patient
Method: Both the 5 and 100 unit groups were administered two tablets of a calcium agent (containing 500 mg of precipitated calcium carbonate [200 mg as calcium] per tablet) once a day.
The osteoporosis patients were classified as condition shown in Table 1 based on the bone fracture risk factors present, as in Non-patent Reference 13, and compared. High-risk patients were defined as having all three factors involving age, prevalent vertebral fractures, and bone density or bone atrophy; low-risk patients were defined as other than the above.

[2] = tested on: high-risk patients diagnosed with primary osteoporosis; assay: Worsening vertebral fractures, Working Example 2; format: in vivo, human; details: FAS, 200 units once a week
Source text: The vertebral fractures in the present invention also include both new fractures and worsening fractures. […] New and worsening [fractures] can be classified by the grade increase pattern according to the criteria of Genant. Concretely speaking, a fracture is diagnosed as a new fracture when a change is found from grade 0 to grade 1, 2, or 3. It can be regarded as a worsening fracture when a change is found from grade 1 to grade 2 or 3 or from grade 2 to grade 3. The vertebral height was measured according to the method of Inoue et al. (Non-patent reference 35) and the method of Hayashi et al. (Non-patent Reference 36) to accurately assess the changes in grade.
The incidence of bone fractures was checked by frontal and lateral x-rays of the fourth thoracic to the fourth lumbar spine taken at the start and every 24 weeks thereafter.

Substance: teriparatide acetate
- Lumbar spine bone mineral density (% change) ([1]; After 26 W): 3.2%
- Lumbar spine bone mineral density (% change) ([1]; After 52 W): 6.1%
- Lumbar spine bone mineral density (% change) ([1]; After 78 W): 12.0%
- Lumbar spine bone mineral density (% change) ([1]; Final check): 12.0%
- Difference between test drug group and control group after 72 W (%) ([2]; incidence of worsening fractures): 1.8%
- No. with fractures ([2]; worsening fractures): 1
